US12540128B2, “Substituted pyridazinones as herbicides” (SYNGENTA CROP PROTECTION AG, priority 2019, dated 2026)

Key:
Format in all cases: in vivo
Conditions in all cases: 250 g/ha, after 13 days
[1] = test system: Amaranthus retoflexus (AMARE); test: B1 Post-Emergence Efficacy Test 1
Description: (§1) Seeds of a variety of test species are sown in standard soil in pots:— Solanum nigrum (SOLNI), Amaranthus retoflexus (AMARE), Setaria faberi (SETFA), Echinochloa crus-galli (ECHCG), Ipomoea hederacea (IPOHE), Lolium perenne (LOLPE). After 8 days cultivation (post-emergence) under controlled conditions in a glasshouse (at 24/16° C., day/night; 14 hours light; 65% humidity), the plants are sprayed with an aqueous spray solution derived from the formulation of the technical active ingredient in acetone/water (50:50) solution containing 0.5% Tween 20 (polyoxyethylene sorbitan monolaurate, CAS RN 9005-64-5). Compounds are applied at 250 g/ha. The test plants are then grown in a glasshouse under controlled conditions in a glasshouse (at 24/16° C., day/night; 14 hours light; 65% humidity) and watered twice daily. After 13 days, the test is evaluated for the percentage damage caused to the plant. The biological activities are assessed on a five point scale (5=80-100%; 4=60-79%; 3=40-59%; 2=20-39%; 1=0-19%). A blank value in the table is indicative that the compound was not tested on that species.

[2] = test system: Echinochloa crus-galli (ECHCG); test: B1 Post-Emergence Efficacy Test 1
Description: as §1

[3] = test system: Ipomoea hederacea (IPOHE); test: B1 Post-Emergence Efficacy Test 1
Description: as §1

Lolium perenne (LOLPE) [4] = test: B1 Post-Emergence Efficacy Test 1
Description: as §1

Setaria faberi (SETFA) [5] = test: B1 Post-Emergence Efficacy Test 1
Description: as §1

Solanum nigrum (SOLNI) [6] = test: B1 Post-Emergence Efficacy Test 1
Description: as §1

[7] = test system: Amaranthus retoflexus (AMARE); test: B3 Pre-Emergence Efficacy Test 1
Description: (§2) Seeds of a variety of test species were sown in standard soil in pots: Solanum nigrum (SOLNI), Amaranthus retoflexus (AMARE), Setaria faberi (SETFA), Echinochloa crus-galli (ECHCG), Ipomoea hederacea (IPOHE), Lolium perenne (LOLPE). After cultivation for one day (pre-emergence) under controlled conditions in a glasshouse (at 24/16° C., day/night; 14 hours light; 65% humidity), the plants were sprayed with an aqueous spray solution derived from the formulation of the technical active ingredient in acetone/water (50:50) solution containing 0.5% Tween 20 (polyoxyethelyene sorbitan monolaurate, CAS RN 9005-64-5). Compounds are applied at 250 g/ha. The test plants were then grown in a glasshouse under controlled conditions (at 24/16° C., day/night; 14 hours light; 65% humidity) and watered twice daily. After 13 days, the test is evaluated for the percentage damage caused to the plant. The biological activities are assessed on a five point scale (5=80-100%; 4=60-79%; 3=40-59%; 2=20-39%; 1=0-19%). A blank value in the table is indicative that the compound was not tested on that species.

[8] = test system: Echinochloa crus-galli (ECHCG); test: B3 Pre-Emergence Efficacy Test 1
Description: as §2

[9] = test system: Ipomoea hederacea (IPOHE); test: B3 Pre-Emergence Efficacy Test 1
Description: as §2

Lolium perenne (LOLPE) [10] = test: B3 Pre-Emergence Efficacy Test 1
Description: as §2

Setaria faberi (SETFA) [11] = test: B3 Pre-Emergence Efficacy Test 1
Description: as §2

Solanum nigrum (SOLNI) [12] = test: B3 Pre-Emergence Efficacy Test 1
Description: as §2

Cc1nn(C)c(=O)c(-c2c(F)ccc(Cl)c2CCc2ccc3c(c2)CCCN3)c1O [Compound 1.019]
percentage damage caused to the plant, five point scale, AMARE [1]: 4 (4=60-79%) | percentage damage caused to the plant, five point scale, ECHCG [2]: 3 (3=40-59%) | percentage damage caused to the plant, five point scale, IPOHE [3]: 5 (5=80-100%) | percentage damage caused to the plant, five point scale, LOLPE (Lolium perenne (LOLPE) [4]): 5 (5=80-100%) | percentage damage caused to the plant, five point scale, SETFA (Setaria faberi (SETFA) [5]): 5 (5=80-100%) | percentage damage caused to the plant, five point scale, SOLNI (Solanum nigrum (SOLNI) [6]): 5 (5=80-100%) | percentage damage caused to the plant, five point scale, AMARE [7]: 5 (5=80-100%) | percentage damage caused to the plant, five point scale, ECHCG [8]: 1 (1=0-19%) | percentage damage caused to the plant, five point scale, IPOHE [9]: 1 (1=0-19%) | percentage damage caused to the plant, five point scale, LOLPE (Lolium perenne (LOLPE) [10]): 3 (3=40-59%) | percentage damage caused to the plant, five point scale, SETFA (Setaria faberi (SETFA) [11]): 4 (4=60-79%) | percentage damage caused to the plant, five point scale, SOLNI (Solanum nigrum (SOLNI) [12]): 5 (5=80-100%)

CCc1nc2ccc(CCc3c(Cl)ccc(F)c3-c3c(O)c(C)nn(C)c3=O)cc2o1 [Compound 1.028]
percentage damage caused to the plant, five point scale, AMARE [1]: 5 (5=80-100%) | percentage damage caused to the plant, five point scale, ECHCG [2]: 5 (5=80-100%) | percentage damage caused to the plant, five point scale, IPOHE [3]: 5 (5=80-100%) | percentage damage caused to the plant, five point scale, LOLPE (Lolium perenne (LOLPE) [4]): 5 (5=80-100%) | percentage damage caused to the plant, five point scale, SETFA (Setaria faberi (SETFA) [5]): 5 (5=80-100%) | percentage damage caused to the plant, five point scale, SOLNI (Solanum nigrum (SOLNI) [6]): 5 (5=80-100%) | percentage damage caused to the plant, five point scale, AMARE [7]: 5 (5=80-100%) | percentage damage caused to the plant, five point scale, ECHCG [8]: 1 (1=0-19%) | percentage damage caused to the plant, five point scale, IPOHE [9]: 5 (5=80-100%) | percentage damage caused to the plant, five point scale, LOLPE (Lolium perenne (LOLPE) [10]): 5 (5=80-100%) | percentage damage caused to the plant, five point scale, SETFA (Setaria faberi (SETFA) [11]): 5 (5=80-100%) | percentage damage caused to the plant, five point scale, SOLNI (Solanum nigrum (SOLNI) [12]): 5 (5=80-100%)

Cc1nn(C)c(=O)c(-c2c(F)ccc(Cl)c2CCc2ccc3c(c2)CCC(C)N3)c1OC(=O)C(C)C (centres unmarked) [Compound 3.030, [5-[3-chloro-6-fluoro-2-[2-(2-methyl-1,2,3,4-tetrahydroquinolin-6-yl)ethyl]phenyl]-1,3-dimethyl-6-oxo-pyridazin-4-yl] 2-methylpropanoate]
percentage damage caused to the plant, five point scale, AMARE [1]: 5 (5=80-100%) | percentage damage caused to the plant, five point scale, ECHCG [2]: 5 (5=80-100%) | percentage damage caused to the plant, five point scale, IPOHE [3]: 5 (5=80-100%) | percentage damage caused to the plant, five point scale, LOLPE (Lolium perenne (LOLPE) [4]): 5 (5=80-100%) | percentage damage caused to the plant, five point scale, SETFA (Setaria faberi (SETFA) [5]): 5 (5=80-100%) | percentage damage caused to the plant, five point scale, SOLNI (Solanum nigrum (SOLNI) [6]): 5 (5=80-100%) | percentage damage caused to the plant, five point scale, AMARE [7]: 5 (5=80-100%) | percentage damage caused to the plant, five point scale, ECHCG [8]: 5 (5=80-100%) | percentage damage caused to the plant, five point scale, IPOHE [9]: 5 (5=80-100%) | percentage damage caused to the plant, five point scale, LOLPE (Lolium perenne (LOLPE) [10]): 5 (5=80-100%) | percentage damage caused to the plant, five point scale, SETFA (Setaria faberi (SETFA) [11]): 5 (5=80-100%) | percentage damage caused to the plant, five point scale, SOLNI (Solanum nigrum (SOLNI) [12]): 5 (5=80-100%)

Cc1nn(C)c(=O)c(-c2c(F)ccc(Cl)c2CCc2cc(C(F)(F)F)nc3ccccc23)c1O [Compound 1.027]
percentage damage caused to the plant, five point scale, AMARE [1]: 2 (2=20-39%) | percentage damage caused to the plant, five point scale, ECHCG [2]: 4 (4=60-79%) | percentage damage caused to the plant, five point scale, IPOHE [3]: 5 (5=80-100%) | percentage damage caused to the plant, five point scale, LOLPE (Lolium perenne (LOLPE) [4]): 4 (4=60-79%) | percentage damage caused to the plant, five point scale, SETFA (Setaria faberi (SETFA) [5]): 4 (4=60-79%) | percentage damage caused to the plant, five point scale, AMARE [7]: 1 (1=0-19%) | percentage damage caused to the plant, five point scale, ECHCG [8]: 3 (3=40-59%) | percentage damage caused to the plant, five point scale, IPOHE [9]: 3 (3=40-59%) | percentage damage caused to the plant, five point scale, LOLPE (Lolium perenne (LOLPE) [10]): 3 (3=40-59%) | percentage damage caused to the plant, five point scale, SETFA (Setaria faberi (SETFA) [11]): 1 (1=0-19%) | percentage damage caused to the plant, five point scale, SOLNI (Solanum nigrum (SOLNI) [12]): 4 (4=60-79%)

Cc1nn(C)c(=O)c(-c2c(F)ccc(Cl)c2CCc2ccnc3ccccc23)c1O [Compound 1.036]
percentage damage caused to the plant, five point scale, AMARE [1]: 5 (5=80-100%) | percentage damage caused to the plant, five point scale, ECHCG [2]: 5 (5=80-100%) | percentage damage caused to the plant, five point scale, IPOHE [3]: 5 (5=80-100%) | percentage damage caused to the plant, five point scale, LOLPE (Lolium perenne (LOLPE) [4]): 5 (5=80-100%) | percentage damage caused to the plant, five point scale, SETFA (Setaria faberi (SETFA) [5]): 5 (5=80-100%) | percentage damage caused to the plant, five point scale, SOLNI (Solanum nigrum (SOLNI) [6]): 5 (5=80-100%) | percentage damage caused to the plant, five point scale, AMARE [7]: 5 (5=80-100%) | percentage damage caused to the plant, five point scale, ECHCG [8]: 5 (5=80-100%) | percentage damage caused to the plant, five point scale, IPOHE [9]: 5 (5=80-100%) | percentage damage caused to the plant, five point scale, LOLPE (Lolium perenne (LOLPE) [10]): 5 (5=80-100%) | percentage damage caused to the plant, five point scale, SETFA (Setaria faberi (SETFA) [11]): 5 (5=80-100%) | percentage damage caused to the plant, five point scale, SOLNI (Solanum nigrum (SOLNI) [12]): 5 (5=80-100%)

Cc1nn(C)c(=O)c(-c2c(F)ccc(Cl)c2/C=C/c2ccc3c(c2)OC(F)(F)O3)c1OC(=O)C(C)C [Compound 4.342]
percentage damage caused to the plant, five point scale, AMARE [1]: 0 | percentage damage caused to the plant, five point scale, ECHCG [2]: 1 (1=0-19%) | percentage damage caused to the plant, five point scale, IPOHE [3]: 3 (3=40-59%) | percentage damage caused to the plant, five point scale, LOLPE (Lolium perenne (LOLPE) [4]): 2 (2=20-39%) | percentage damage caused to the plant, five point scale, SETFA (Setaria faberi (SETFA) [5]): 1 (1=0-19%) | percentage damage caused to the plant, five point scale, SOLNI (Solanum nigrum (SOLNI) [6]): 4 (4=60-79%) | percentage damage caused to the plant, five point scale, AMARE [7]: 1 (1=0-19%) | percentage damage caused to the plant, five point scale, ECHCG [8]: 0 | percentage damage caused to the plant, five point scale, IPOHE [9]: 1 (1=0-19%) | percentage damage caused to the plant, five point scale, LOLPE (Lolium perenne (LOLPE) [10]): 0 | percentage damage caused to the plant, five point scale, SETFA (Setaria faberi (SETFA) [11]): 0 | percentage damage caused to the plant, five point scale, SOLNI (Solanum nigrum (SOLNI) [12]): 3 (3=40-59%)

Cc1ccc2cc(CCc3c(Cl)ccc(F)c3-c3c(OC(=O)C(C)C)c(C)nn(C)c3=O)ccc2n1 [Compound 3.034, [5-[3-chloro-6-fluoro-2-[2-(2-methyl-6-quinolyl)ethyl]phenyl]-1,3-dimethyl-6-oxo-pyridazin-4-yl] 2-methylpropanoate]
percentage damage caused to the plant, five point scale, AMARE [1]: 4 (4=60-79%) | percentage damage caused to the plant, five point scale, ECHCG [2]: 4 (4=60-79%) | percentage damage caused to the plant, five point scale, IPOHE [3]: 4 (4=60-79%) | percentage damage caused to the plant, five point scale, LOLPE (Lolium perenne (LOLPE) [4]): 5 (5=80-100%) | percentage damage caused to the plant, five point scale, SETFA (Setaria faberi (SETFA) [5]): 5 (5=80-100%) | percentage damage caused to the plant, five point scale, SOLNI (Solanum nigrum (SOLNI) [6]): 5 (5=80-100%) | percentage damage caused to the plant, five point scale, AMARE [7]: 5 (5=80-100%) | percentage damage caused to the plant, five point scale, ECHCG [8]: 5 (5=80-100%) | percentage damage caused to the plant, five point scale, IPOHE [9]: 2 (2=20-39%) | percentage damage caused to the plant, five point scale, LOLPE (Lolium perenne (LOLPE) [10]): 5 (5=80-100%) | percentage damage caused to the plant, five point scale, SETFA (Setaria faberi (SETFA) [11]): 5 (5=80-100%) | percentage damage caused to the plant, five point scale, SOLNI (Solanum nigrum (SOLNI) [12]): 5 (5=80-100%)
